Assay results reported in article PMC9011347, “Small-Molecule Inhibitors Targeting Lipolysis in Human Adipocytes” (Journal of the American Chemical Society, 2022).

Assay: Serum stability of ATGL inhibitors (UHPLC-MS)
Type: in vitro ADME, human
Settings: 3 h at 37 °C
Description: Figure 2 Development and characterization of the human ATGL inhibitor NG-497. (a) Structure and IC50 values of human ATGL inhibitors. (b) Dose-dependent inhibition of human ATGL by respective inhibitors. (c) ATGL activity was determined at the indicated substrate concentrations in the absence and presence of NG-497 (0.5 μM). Ki was determined by nonlinear regression analysis using GraphPad Prism. Lineweaver–Burk analysis of ATGL inhibition is shown in the inset. (d) Toxicity of NG-497 in HepG2 cells was determined after 24 h incubation at indicated concentrations. Cisplatin and DMSO were used as positive and negative controls, respectively. Cytotoxicity was determined using the Roche LDH Kit and calculated as relative LDH release compared to fully lysed cells. (e) Stability of NG-497 was analyzed via ultrahigh-performance liquid chromatography–mass spectrometry (UHPLC-MS) after incubation in human serum for 0 or 3 h at 37 °C. Atglistatin and a chemically related unstable compound were used as controls. […] NG-497 concentrations/well were determined at the indicated time points using UHPLC-MS. […] Statistical significance was determined via t test (*p < 0.05; **p < 0.01; ***p < 0.001) or ANOVA followed by Bonferroni post hoc test (^###p < 0.001). […] The detected 297 lipid species of both groups were analyzed with supervised multivariate analysis OPLS-DA and are shown as a loading plot. […]

| SMILES | stability in human serum |
| --- | --- |
| CCOc1ccc(-c2cc(OC)cc(C(=O)OC(C)C)n2)cc1 [NG-497] | not metabolized |
| CN(C)C(=O)Nc1cccc(-c2ccc(N(C)C)cc2)c1 [Atglistatin, reference compound] | not metabolized |
